Experimental data: US20230210896A9, “METHOD FOR T CELL ACTIVATION FOR CANCER TREATMENT” (GOOD T CELLS, INC., priority 2019, published 2023)

Test system: CD8-expressing T cells
Assay: ELISPOT of IFN-γ secretion in T cells activated by dendritic cells loaded with LMP2a epitope groups
Format: cell-based, human
Details: DC:CD8 T cells 1:10, 18 hours
[1] = healthy human donor N5 (N5-1 and N5-2, repeated twice), FIGS. 1 and 2
[2] = healthy human donor N15, FIG. 4

Substance | expression of IFN-γ in T cells (ELISPOT) [1] | expression of IFN-γ in T cells (ELISPOT) (healthy human donor N9, FIG. 3) | expression of IFN-γ in T cells (ELISPOT) [2]
3 (MGAGPPSPGGDPDGD; LMP2a epitope) [compound 3] | increased expression of IFN-γ | increased expression of IFN-γ | increased expression of IFN-γ
5 (GGDPDGDDGGNNSQY; LMP2a epitope) [compound 5] | – | – | increased expression of IFN-γ
8 (SQYPSASGSYGNTPT; LMP2a epitope) [compound 8] | – | increased expression of IFN-γ | increased expression of IFN-γ
9 (SASGSYGNTPTPPND; LMP2a epitope) [compound 9] | increased expression of IFN-γ | – | increased expression of IFN-γ
12 (PNDEERESNEEPPPP; LMP2a epitope) [compound 12] | increased expression of IFN-γ | – | –
15 (PPPYEDLDWGNGDRH; LMP2a epitope) [compound 15] | increased expression of IFN-γ | increased expression of IFN-γ | increased expression of IFN-γ
16 (EDLDWGNGDRHSDYQ; LMP2a epitope) [compound 16] | – | increased expression of IFN-γ | –
18 (DRHSDYQPLGNQDPS; LMP2a epitope) [compound 18] | increased expression of IFN-γ | – | –
19 (DYQPLGNQDPSLYLG; LMP2a epitope) [compound 19] | – | increased expression of IFN-γ | –
20 (LGNQDPSLYLGLQHD; LMP2a epitope) [compound 20] | – | increased expression of IFN-γ | –
